This note sets out measurements from ChEMBL document CHEMBL4261503, “Scaffold hopping via ANCHOR.QUERY: β-lactams as potent p53-MDM2 antagonists†” (Medchemcomm, 2017).

For one assay, the target named is T1, Protein Mdm4 (Homo sapiens, UniProt O15151).
T1 sequence (O15151 whole entry): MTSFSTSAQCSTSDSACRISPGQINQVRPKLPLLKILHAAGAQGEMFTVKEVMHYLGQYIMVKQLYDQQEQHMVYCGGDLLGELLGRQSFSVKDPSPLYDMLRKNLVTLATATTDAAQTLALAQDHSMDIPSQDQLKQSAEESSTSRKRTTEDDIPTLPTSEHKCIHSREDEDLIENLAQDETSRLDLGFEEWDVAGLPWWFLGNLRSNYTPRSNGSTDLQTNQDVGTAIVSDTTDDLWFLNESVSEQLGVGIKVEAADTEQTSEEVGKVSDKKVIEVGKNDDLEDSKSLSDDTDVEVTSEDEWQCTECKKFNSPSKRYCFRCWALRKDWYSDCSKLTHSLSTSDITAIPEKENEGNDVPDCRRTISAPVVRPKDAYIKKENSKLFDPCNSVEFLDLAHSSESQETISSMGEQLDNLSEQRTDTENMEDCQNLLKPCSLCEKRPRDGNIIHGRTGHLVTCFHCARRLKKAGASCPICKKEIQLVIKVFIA

Assay [1] concerns the target E3 ubiquitin-protein ligase Mdm2 (Homo sapiens, UniProt Q00987).

SMILES strings stand for the structures.

E3 ubiquitin-protein ligase Mdm2, sequence (Q00987 whole entry): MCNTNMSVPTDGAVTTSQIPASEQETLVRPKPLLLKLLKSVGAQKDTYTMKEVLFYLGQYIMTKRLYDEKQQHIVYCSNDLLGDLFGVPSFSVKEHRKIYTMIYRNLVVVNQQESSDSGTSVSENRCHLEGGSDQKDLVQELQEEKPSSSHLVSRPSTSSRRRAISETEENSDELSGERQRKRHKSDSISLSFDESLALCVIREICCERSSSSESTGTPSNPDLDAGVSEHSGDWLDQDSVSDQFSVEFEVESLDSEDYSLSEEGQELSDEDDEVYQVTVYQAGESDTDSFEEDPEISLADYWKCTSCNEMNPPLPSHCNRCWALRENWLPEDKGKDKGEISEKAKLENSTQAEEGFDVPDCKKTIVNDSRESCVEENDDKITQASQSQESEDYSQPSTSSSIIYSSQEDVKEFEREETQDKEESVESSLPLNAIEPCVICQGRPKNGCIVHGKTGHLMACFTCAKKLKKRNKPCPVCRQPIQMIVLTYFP

On to `O=C(NC12CC3CC(CC(C3)C1)C2)C(c1ccc(Cl)cc1)N1C(=O)CC1c1ccc(OCc2ccccc2)cc1` (single isomer, unassigned; diastereomer A), for which the Ki result (at Protein Mdm4; in assay [1]) was “Not Active” each time.

Regarding `CC(C)(C)NC(=O)C(c1ccc(Cl)cc1)N1C(=O)CC1c1ccc(OCc2ccccc2)cc1` (mixture of isomers), the Ki entry (at Protein Mdm4; in assay [1]) was “Not Active” in each case.
